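1) Cells in 96-well plates. 2) Compound, 48 h, 5 concentrations. 3) Linear interpolation between surrounding doses. 4) Unreached endpoint = highest concentration. GI50: concentration for 50% inhibition of growth.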 Calls of active or inactive are those of the source. Cut-off read from the data, not from the text of the source: active = GI50 up to about 1.1 µM and inactive = higher.
Key:
Test in all cases: inhibition of tumour cell growth, NCI panel, 48 h
SNB-19 = tested on: SNB-19
OVCAR-5 = tested on: OVCAR-5
A498 = tested on: A498
SW-620 = tested on: SW-620
OVCAR-8 = tested on: OVCAR-8
SK-OV-3 = tested on: SK-OV-3
NCI-H460 = tested on: NCI-H460
MOLT-4 = tested on: MOLT-4
NCI-H23 = tested on: NCI-H23
LXFL 529 = tested on: LXFL 529
SF-539 = tested on: SF-539
HOP-62 = tested on: HOP-62
RXF 631 = tested on: RXF 631
M14 = tested on: M14
DMS-114 = tested on: DMS-114
786-0 = tested on: 786-0
UO-31 = tested on: UO-31
TK-10 = tested on: TK-10
ACHN = tested on: ACHN
UACC-62 = tested on: UACC-62
LOX IMVI = tested on: LOX IMVI
XF498 = tested on: XF498
M19-MEL = tested on: M19-MEL
CCRF-CEM = tested on: CCRF-CEM
SN12C = tested on: SN12C
COLO 205 = tested on: COLO 205
A549 = tested on: A549
HCC 2998 = tested on: HCC 2998
EKVX = tested on: EKVX
HCT-15 = tested on: HCT-15
HCT-116 = tested on: HCT-116
OVCAR-3 = tested on: OVCAR-3
HL-60 = tested on: HL-60
U-251 = tested on: U-251
RXF 393 = tested on: RXF 393
SK-MEL-2 = tested on: SK-MEL-2
SK-MEL-28 = tested on: SK-MEL-28
NCI-H226 = tested on: NCI-H226
SK-MEL-5 = tested on: SK-MEL-5
SF-295 = tested on: SF-295
SF-268 = tested on: SF-268
DLD-1 = tested on: DLD-1
NCI-H522 = tested on: NCI-H522
HOP-18 = tested on: HOP-18
SNB-75 = tested on: SNB-75
K562 = tested on: K562
SR = tested on: SR
HOP-92 = tested on: HOP-92
IGROV-1 = tested on: IGROV-1
RPMI-8226 = tested on: RPMI-8226
KM-20L2 = tested on: KM-20L2
Malme-3M = tested on: Malme-3M
HT-29 = tested on: HT-29
KM12 = tested on: KM12
UACC-257 = tested on: UACC-257
DMS-273 = tested on: DMS-273
SNB-78 = tested on: SNB-78
OVCAR-4 = tested on: OVCAR-4

In the case of `Cc1cccc2c1NC(c1c(C)[nH]c3ccccc13)C2` (centres undefined), the GI50 (SNB-19) is reported as > 100 µM (inactive), the GI50 (OVCAR-5) is reported as > 100 µM (inactive) and the GI50 (A498) is reported as > 100 µM (inactive). For the same molecule, the GI50 (SW-620) was 68.2 µM (inactive), the GI50 (OVCAR-8) was > 100 µM (inactive) and the GI50 (SK-OV-3) was > 100 µM (inactive). The GI50 (NCI-H460) was > 100 µM (inactive), the GI50 (MOLT-4) was 63 µM (inactive) and the GI50 (NCI-H23) was > 100 µM (inactive). The GI50 (LXFL 529) was > 100 µM (inactive), the GI50 (SF-539) was > 100 µM (inactive) and the GI50 (HOP-62) was > 100 µM (inactive). The GI50 (RXF 631) was > 100 µM (inactive), the GI50 (M14) was 78.7 µM (inactive) and the GI50 (DMS-114) was 56.1 µM (inactive). The GI50 (786-0) was > 100 µM (inactive), the GI50 (UO-31) was 64.4 µM (inactive) and the GI50 (TK-10) was > 100 µM (inactive). For the same molecule, the GI50 (ACHN) was 94 µM (inactive), the GI50 (UACC-62) was 78.2 µM (inactive) and the GI50 (LOX IMVI) was 80 µM (inactive). For the same molecule, the GI50 (XF498) was 51.9 µM (inactive), the GI50 (M19-MEL) was > 100 µM (inactive) and the GI50 (CCRF-CEM) was 57.7 µM (inactive). For the same molecule, the GI50 (SN12C) was > 100 µM (inactive), the GI50 (COLO 205) was 56 µM (inactive) and the GI50 (A549) was > 100 µM (inactive). The GI50 (HCC 2998) was > 100 µM (inactive), the GI50 (EKVX) was 82.6 µM (inactive) and the GI50 (HCT-15) was greater than 100 µM. For the same molecule, the GI50 (HCT-116) was > 100 µM (inactive), the GI50 (OVCAR-3) was 86.7 µM (inactive) and the GI50 (HL-60) was 50.1 µM (inactive). The GI50 (U-251) was > 100 µM (inactive), the GI50 (RXF 393) was 56.4 µM (inactive) and the GI50 (SK-MEL-2) was > 100 µM (inactive). The GI50 (SK-MEL-28) was > 100 µM (inactive), the GI50 (NCI-H226) was 80.5 µM (inactive) and the GI50 (SK-MEL-5) was > 100 µM (inactive). For the same molecule, the GI50 (SF-295) was 54.8 µM (inactive), the GI50 (SF-268) was > 100 µM (inactive) and the GI50 (DLD-1) was > 100 µM (inactive). The GI50 (NCI-H522) was > 100 µM (inactive), the GI50 (HOP-18) was > 100 µM (inactive) and the GI50 (SNB-75) was > 100 µM (inactive). The GI50 (K562) was > 100 µM (inactive), the GI50 (SR) was > 100 µM (inactive) and the GI50 (HOP-92) was 1.41 µM (inactive). The GI50 (IGROV-1) was 33.4 µM (inactive), the GI50 (RPMI-8226) was > 100 µM (inactive) and the GI50 (KM-20L2) was > 100 µM (inactive). For the same molecule, the GI50 (Malme-3M) was > 100 µM (inactive), the GI50 (HT-29) was > 100 µM (inactive) and the GI50 (KM12) was 62.4 µM (inactive). For the same molecule, the GI50 (UACC-257) was > 100 µM (inactive).
In the case of `COc1ccc(C=O)c(N(C)C(=O)C(C)(C)C)c1`, the GI50 (SNB-19) is reported as > 100 µM (inactive), the GI50 (A498) is reported as > 100 µM (inactive) and the GI50 (SW-620) is reported as > 100 µM (inactive). The GI50 (OVCAR-8) was > 100 µM (inactive), the GI50 (SK-OV-3) was > 100 µM (inactive) and the GI50 (DMS-273) was > 100 µM (inactive). For the same molecule, the GI50 (NCI-H460) was > 100 µM (inactive), the GI50 (MOLT-4) was > 100 µM (inactive) and the GI50 (NCI-H23) was > 100 µM (inactive). For the same molecule, the GI50 (SF-539) was > 100 µM (inactive), the GI50 (HOP-62) was > 100 µM (inactive) and the GI50 (SNB-78) was > 100 µM (inactive). For the same molecule, the GI50 (RXF 631) was > 100 µM (inactive), the GI50 (M14) was > 100 µM (inactive) and the GI50 (DMS-114) was > 100 µM (inactive). For the same molecule, the GI50 (786-0) was > 100 µM (inactive), the GI50 (UO-31) was > 100 µM (inactive) and the GI50 (OVCAR-4) was > 100 µM (inactive). For the same molecule, the GI50 (TK-10) was > 100 µM (inactive), the GI50 (ACHN) was > 100 µM (inactive) and the GI50 (UACC-62) was > 100 µM (inactive). The GI50 (LOX IMVI) was > 100 µM (inactive), the GI50 (XF498) was 17.1 µM (inactive) and the GI50 (M19-MEL) was > 100 µM (inactive). The GI50 (CCRF-CEM) was > 100 µM (inactive), the GI50 (SN12C) was > 100 µM (inactive) and the GI50 (COLO 205) was > 100 µM (inactive). For the same molecule, the GI50 (A549) was > 100 µM (inactive), the GI50 (HCC 2998) was > 100 µM (inactive) and the GI50 (EKVX) was > 100 µM (inactive). The GI50 (HCT-15) was greater than 100 µM, the GI50 (HCT-116) was > 100 µM (inactive) and the GI50 (OVCAR-3) was > 100 µM (inactive). The GI50 (HL-60) was > 100 µM (inactive), the GI50 (U-251) was > 100 µM (inactive) and the GI50 (RXF 393) was > 100 µM (inactive). The GI50 (SK-MEL-2) was > 100 µM (inactive), the GI50 (SK-MEL-28) was > 100 µM (inactive) and the GI50 (NCI-H226) was > 100 µM (inactive). For the same molecule, the GI50 (SK-MEL-5) was > 100 µM (inactive), the GI50 (SF-295) was > 100 µM (inactive) and the GI50 (SF-268) was > 100 µM (inactive). For the same molecule, the GI50 (NCI-H522) was > 100 µM (inactive), the GI50 (HOP-18) was > 100 µM (inactive) and the GI50 (SNB-75) was > 100 µM (inactive). The GI50 (K562) was > 100 µM (inactive), the GI50 (HOP-92) was > 100 µM (inactive) and the GI50 (IGROV-1) was > 100 µM (inactive). For the same molecule, the GI50 (RPMI-8226) was > 100 µM (inactive), the GI50 (KM-20L2) was > 100 µM (inactive) and the GI50 (Malme-3M) was > 100 µM (inactive). The GI50 (HT-29) was > 100 µM (inactive), the GI50 (KM12) was > 100 µM (inactive) and the GI50 (UACC-257) was > 100 µM (inactive).

Reference: ChEMBL document CHEMBL1201862, “PubChem BioAssay data set” (2004)
